Data as given in patent US10357492B2, “Levosimendan for use in the treatment of motor neuron diseases (E.G. ALS)” (Orion Corporation, priority 2014, dated 2019).

Legend:
[1] = pharmacokinetics (half-life); conditions: rat, in vivo; "in rats" printed for the active metabolite (II) only; read-out: t½ (converted)
[2] = tested on: Antibody Induced Myasthenia Gravis Model in Female Lewis Rats; assay: treadmill exercise capacity test in antibody induced myasthenia gravis model; type: in vivo; conditions: 2 h post-dosing of repeated oral dosage on day 3 (72 h after antibody); levosimendan 0.25 mg/kg, active metabolite (II) 0.025 mg/kg; FIG. 2
Experimental: (§1) The effects of levosimendan and its active metabolite (II) on skeletal muscle weakness were studied in an experimental model of Myasthenia Gravis (Russell A J et al., Nat Med 18 (3), 2012, 452-5). Myasthenia Gravis was induced in female Lewis rats by injecting 500 μg/kg of nAChRα1/3/5 antibody (SC-58604, Santa Cruz Biotechnology) intraperitoneally on day 0. Animals with 40-70% drop in muscle strength from baseline at 48 h after administration of the antibody were randomized into treatment groups: 1) Vehicle control (n=6) (0.5% Methocel 5 ml/kg orally), 2) Levosimendan (n=6) (0.25 mg/kg orally), 3) Active metabolite (II) (n=6) (0.025 mg/kg orally).
Exercise capacity measurements were performed with airtight treadmill (Accupacer treadmill, Accuscan Instruments, USA) connected to a respiratory gas analysing system. Rehearsals and exercise capacity measurements were started with familiarising the rats with the treadmill chambers for 15 minutes (restmill). The exercise program consisted of 15 min running at 10 m/min until the rat was incapable to keep up the speed despite of electric shock motivation. Rats were trained for the test three times one day before and twice on the day of antibody injection. Effects of different drug treatments on treadmill responses were measured 1 h and 2 h after oral treatment on day 3 (72 h after induction of Myasthenia Gravis).

[3] = tested on: Antibody Induced Myasthenia Gravis Model in Female Lewis Rats; assay: accelerated rotating rod test (Rotarod) in antibody induced myasthenia gravis model; type: in vivo; conditions: single oral dosage on day 2 (48 h after antibody); levosimendan 0.25 mg/kg, active metabolite (II) 0.025 mg/kg; measured 0.5 h, 1 h, 2 h after treatment; FIG. 1
Experimental: as §1
Coordination, balance, and motor skill acquisition were tested using an accelerated rotating rod test (Rotarod, Ugo Basile, Comerio, Italy). Rats were placed on a rod that accelerated smoothly from 4 to 40 rpm over a period of 5 min. The length of time that each animal was able to stay on the rod was recorded. Three consecutive measurements were performed. Rats were trained for the test four times one day before and twice on the day of antibody injection. Effects of different drug treatments on Rotarod response were measured 0.5 h, 1 h, and 2 h after oral treatment on day 2, i.e. 48 hours after the induction of Myasthenia Gravis.

half-life [1] [h] | Compound | effect on skeletal muscle function in treadmill test (exercise duration) [2] | effect on muscle function in Rotarod test (time able to stay on the rotating rod) [3]
5 | CC(=O)Nc1ccc(C2=NNC(=O)C[C@H]2C)cc1 [active metabolite (II), (R)—N-[4-(1,4,5,6-tetrahydro-4-methyl-6-oxo-3-pyridazinyl)phenyl]-acetamide] | positive effect | acute and transient improvement in muscle function
0.7 | CC1CC(=O)NN=C1c1ccc(NN=C(C#N)C#N)cc1 (single isomer, unassigned) [Levosimendan, [[4-(1,4,5,6-tetrahydro-4-methyl-6-oxo-3-pyridazinyl)phenyl]hydrazono]propanedinitrile] | positive effect | acute and transient improvement in muscle function
